Data from patent publication US7482378B2, “Physiological cooling compositions” (Millenium Specialty Chemicals, Inc., priority 2004, dated 2009).

Legend:
[1] = Relative cooling strength of individual coolants, organoleptic sequential dilution method versus standard 10 ppm WS-3 solution in water; type: in vivo; conditions: relative to 10 ppm WS-3 in water assigned 10.0; values accepted in the art and confirmed by expert evaluation
Description: The aqueous solutions of products for organoleptic tests were obtained by dissolving appropriate amounts of the products in propylene glycol PG and adding the PG solution to an appropriate amount of water.
A. Cooling strength values for individual coolants. Cooling strength values used in this invention for individual coolants were those generally accepted in the art and also additionally confirmed using expert evaluations conducted by Millennium Specialty Chemicals personnel on the basis of a sequential dilution method, i.e., a controlled dilution of samples to the concentration where their strength is about equal to the standard solution of WS-3. For purposes of Examples 55-60, a 10 ppm solution of WS-3 in water was used as the standard solution and was assigned a standardized cooling strength value of 10.0. The corresponding relative cooling strengths for the individual cooling agents were then assigned based upon an organoleptic determination of the approximate concentration of cooling agent that was required to provide about the same cooling strength as the standardized 10 ppm solution of WS-3.

For CC(C)[C@@H]1CC[C@@H](C)C[C@H]1OC(=O)CCCC(=O)O [MMG, monomenthyl glutarate], the Relative cooling strength [1] was “about 3.5”.

With CC1CCC(C(C)C)C(OC(=O)C(C)O)C1 (stereo not drawn) [Menthyl Lactate, l-Menthyl ester of lactic acid] the Relative cooling strength [1] was “about 2.9”.

With CNC(=O)C1C(C)CCCC1(C)C (stereo not shown) [N,2,2,6-Tetramethylcyclohexane-1-carboxamide] the melting point was 146 to 148 °C and the Relative cooling strength [1] was “about 1.0”.

With CCNC(=O)[C@@H]1C[C@H](C)CC[C@H]1C(C)C [WS-3, N-ethyl-3-p-menthane carboxamide] the Relative cooling strength [1] was 10.0.

With CCOC(=O)CNC(=O)C1CC(C)CCC1C(C)C (stereo not shown) [WS-5, N-(ethoxycarbonylmethyl)-3-p-menthane carboxamide] the Relative cooling strength [1] was “about 16.7”.

With CC(C)[C@@H]1CC[C@@H](C)C[C@H]1C(=O)NC(C)(C)C [WS-14, N-tert-butyl-3-p-menthane carboxamide] the melting point was 147 to 150 °C and the Relative cooling strength [1] was “about 5.0”.

With CNC(=O)C(C)(C(C)C)C(C)C [WS-23, N,2,3-trimethyl-2-isopropyl butanamide] the Relative cooling strength [1] was “about 5.0”.

With “Glyceryl ether of p-menthane-3-carboxylic acid [WS-30]” the Relative cooling strength [1] was “about 1.5”.
